Test results as given in paper PMC7770057 (Journal of medicinal chemistry, 2020).

Legend:
MEK1/2 = conditions: HT-29 cells, 0.3, 1 and 3 μM; previous study; cited from earlier work
SK-MEL-28 cells = assay: Antiproliferation; type: cell-based; conditions: Homo sapiens, SK-MEL-28, 72 h, read-out: SK-MEL-28 GI50

| GI50 (SK-MEL-28 cells) [µM] | SMILES | MEK1/2 degradation (Western blot, words) (MEK1/2) |
| --- | --- | --- |
|  | Cc1ncsc1-c1ccc(CNC(=O)[C@@H]2C[C@@H](O)CN2C(=O)[C@@H](NC(=O)CCCCCCCCCCNCCCONC(=O)c2ccc(F)c(F)c2Nc2ccc(I)cc2F)C(C)(C)C)cc1 [Compound 14, (2S,4R)-1-((S)-20-(tert-Butyl)-1-(3,4-difluoro-2-((2-fluoro-4-iodophenyl)amino)phenyl)-1,18-dioxo-3-oxa-2,7,19-triazahenicosan-21-oyl)-4-hydroxy-N-(4-(4-methylthiazol-5-yl)benzyl)pyrrolidine-2-carboxamide] | significantly degrade MEK1/2 protein levels |
| ~0.1 | CCCS(=O)(=O)Nc1ccc(F)c(C(=O)c2c[nH]c3ncc(-c4ccc(Cl)cc4)cc23)c1F [PLX4032] |  |
